Laboratory results published in PMC12148480 (The Journal of Biological Chemistry, 2025).
“Also recorded” adds a separate entry of the source.

Key:
CaMKIIβ L467W/C533R [1] = target: T1, CaMKIIβ L467W/C533R (Rattus norvegicus, UniProt P08413, C533R/L467W); test: Displacement of [3H]O-5-HDC binding in CaMKIIβ L467W/C533R HEK293T homogenate
T1 construct: host or cells: HEK293T whole-cell homogenate
Method: (§1) Recombinant HEK293T whole-cell homogenate equilibrium binding experiments were performed similar to that described previously ([14]), using a 48-well assay format. […] The binding reaction was terminated by precipitation with ice-cold acetone (1 h at −20 °C), and radioligand-bound protein was separated from free radioligand by vacuum-filtration through glass fibre (GF/C) filters. Counts (disintegrations per minute [DPM]) were detected by liquid scintillation counting ([14]). Counts for CaMKIIα WT typically ranged from 2000 to 6000 DPM with [^3H]HOCPCA and 1800 to 5000 DPM with [^3H]O-5-HDC, slightly lower for the CaMKIIβ […] mutant. All experiments were performed in technical triplicates using at least three different batches of HEK293T cell homogenates.
(§2) Data analysis: The specific binding was determined as Total binding subtracted NSB. For the pooling of data from recombinant binding, the specific binding of the variant was normalized to the specific binding of CaMKIIα WT within each experiment.
Specific binding (% of control)=Top-Bottom1+10(log(IC50-[compound]))
where top and bottom represent the upper and lower plateaus of the curve, respectively.

ischemia = settings: several mouse models of ischemia; cited from earlier work
CaMKIIα [2] = settings: cited from earlier work
[3] = target: native CaMKIIα (rat cortical homogenate) (Rattus norvegicus, UniProt P11275); test: Competitive inhibition of [3H]O-5-HDC binding, rat cortical homogenate; parameters: native CaMKIIα (rat cortical homogenate); from tissue; host or cells: rat cerebral cortex homogenate
Chain of native CaMKIIα (rat cortical homogenate) (P11275 whole entry): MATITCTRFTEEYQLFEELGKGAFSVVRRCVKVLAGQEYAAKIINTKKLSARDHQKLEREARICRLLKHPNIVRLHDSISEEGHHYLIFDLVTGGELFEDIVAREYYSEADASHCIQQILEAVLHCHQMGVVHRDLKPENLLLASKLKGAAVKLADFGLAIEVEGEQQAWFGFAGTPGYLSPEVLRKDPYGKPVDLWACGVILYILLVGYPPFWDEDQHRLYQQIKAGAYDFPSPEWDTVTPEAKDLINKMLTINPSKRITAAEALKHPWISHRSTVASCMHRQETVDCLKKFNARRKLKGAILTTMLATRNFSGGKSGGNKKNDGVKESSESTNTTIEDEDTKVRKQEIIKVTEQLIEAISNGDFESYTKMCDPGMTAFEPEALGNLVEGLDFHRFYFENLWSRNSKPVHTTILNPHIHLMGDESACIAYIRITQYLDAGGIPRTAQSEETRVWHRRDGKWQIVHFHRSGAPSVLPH
Source text: Ki values were obtained from the One Site-Fit Ki model utilizing the following Cheng-Prusoff equation: […]
Where [RL] represents the specific radioligand concentration from each experiment and KD is the dissociation constant of [^3H]O-5-HDC acquired from saturation curves.

[4] = target: CaMKIIα (rat cortical homogenate); settings: inhibition of [3H]HOCPCA binding, ref 1 (Leurs et al., PNAS 2021); read-out: Comparative Ki, [3H]HOCPCA binding; cited from earlier work
CaMKIIβ C533R = target: T2, CaMKIIβ C533R (Rattus norvegicus, UniProt P08413, C533R); test: [3H]HOCPCA binding, HEK293T whole-cell homogenate, CaMKIIβ C533R
T2 construct: host or cells: HEK293T whole-cell homogenate
T2 sequence (P08413 whole entry C533R): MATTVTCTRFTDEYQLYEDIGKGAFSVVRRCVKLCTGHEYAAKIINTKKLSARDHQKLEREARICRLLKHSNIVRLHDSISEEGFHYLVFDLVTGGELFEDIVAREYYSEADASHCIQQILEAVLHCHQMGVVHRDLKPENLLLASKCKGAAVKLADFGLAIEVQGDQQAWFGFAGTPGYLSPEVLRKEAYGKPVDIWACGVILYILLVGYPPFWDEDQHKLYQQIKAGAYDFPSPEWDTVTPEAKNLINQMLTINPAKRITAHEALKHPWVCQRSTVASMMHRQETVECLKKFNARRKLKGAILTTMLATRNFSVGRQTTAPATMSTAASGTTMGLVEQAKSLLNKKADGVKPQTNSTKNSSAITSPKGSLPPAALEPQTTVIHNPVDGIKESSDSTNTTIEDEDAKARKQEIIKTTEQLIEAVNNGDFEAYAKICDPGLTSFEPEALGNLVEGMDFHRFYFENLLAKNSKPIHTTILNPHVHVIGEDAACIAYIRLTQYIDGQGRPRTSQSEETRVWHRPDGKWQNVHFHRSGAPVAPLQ
Method: as §1, §2

[5] = target: T3, CaMKIIα R433Q/R453Q/R469Q (Rattus norvegicus, UniProt P11275, R433Q/R453Q/R469Q); test: [3H]HOCPCA binding, HEK293T whole-cell homogenate, CaMKIIα triple mutant; settings: CaMKIIα triple mutant RRR433/453/469QQQ
T3 construct: host or cells: HEK293T whole-cell homogenate
T3 sequence (P11275 whole entry R433Q/R453Q/R469Q): as the sequence (P11275 whole entry) above, with R433Q, R453Q, R469Q counted along it
Method: as §1, §2

CaMKIIβ WT = target: T4, CaMKIIβ WT (Rattus norvegicus, UniProt P08413); test: [3H]HOCPCA binding, HEK293T whole-cell homogenate, CaMKIIβ WT
T4 construct: host or cells: HEK293T whole-cell homogenate
T4 sequence (P08413 whole entry): as the sequence (P08413 whole entry C533R) above, with R533C counted along it
Method: as §1, §2

CaMKIIα R453Q = target: T5, CaMKIIα R453Q (Rattus norvegicus, UniProt P11275, R453Q); test: [3H]HOCPCA binding, HEK293T whole-cell homogenate, CaMKIIα R453Q; settings: normalized to CaMKIIα WT
T5 construct: host or cells: HEK293T whole-cell homogenate
T5 sequence (P11275 whole entry R453Q): as the sequence (P11275 whole entry) above, with R453Q counted along it
Method: as §1, §2

CaMKIIα H395A = target: T6, CaMKIIα H395A (Rattus norvegicus, UniProt P11275, H395A); test: [3H]HOCPCA binding, HEK293T whole-cell homogenate, CaMKIIα H395A; settings: normalized to CaMKIIα WT
T6 construct: host or cells: HEK293T whole-cell homogenate
T6 sequence (P11275 whole entry H395A): as the sequence (P11275 whole entry) above, with H395A counted along it
Method: as §1, §2

CaMKIIα W403L = target: T7, CaMKIIα W403L (Rattus norvegicus, UniProt P11275, W403L); test: [3H]HOCPCA binding, HEK293T whole-cell homogenate, CaMKIIα W403L; settings: p = 0.0038
T7 construct: host or cells: HEK293T whole-cell homogenate
T7 sequence (P11275 whole entry W403L): as the sequence (P11275 whole entry) above, with W403L counted along it
Method: as §1, §2

CaMKIIγ C518R = target: T8, CaMKIIγ C518R (Rattus norvegicus, UniProt P11730, C518R); test: [3H]HOCPCA binding, HEK293T whole-cell homogenate, CaMKIIγ C518R
T8 construct: host or cells: HEK293T whole-cell homogenate
T8 sequence (P11730 whole entry C518R): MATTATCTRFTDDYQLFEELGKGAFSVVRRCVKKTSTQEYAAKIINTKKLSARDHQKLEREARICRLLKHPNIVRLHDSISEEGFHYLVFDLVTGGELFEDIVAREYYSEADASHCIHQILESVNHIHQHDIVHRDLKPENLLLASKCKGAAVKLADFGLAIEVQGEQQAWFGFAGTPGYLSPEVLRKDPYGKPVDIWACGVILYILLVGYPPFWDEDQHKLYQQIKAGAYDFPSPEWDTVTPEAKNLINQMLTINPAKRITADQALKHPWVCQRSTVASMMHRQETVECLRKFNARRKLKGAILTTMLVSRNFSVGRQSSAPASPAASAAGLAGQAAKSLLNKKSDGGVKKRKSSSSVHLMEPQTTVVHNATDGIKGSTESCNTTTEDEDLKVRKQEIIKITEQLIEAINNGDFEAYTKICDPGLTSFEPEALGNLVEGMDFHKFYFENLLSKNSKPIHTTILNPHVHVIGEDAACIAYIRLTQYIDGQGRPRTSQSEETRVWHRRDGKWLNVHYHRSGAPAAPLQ
Method: as §1, §2

CaMKIIβ L467W/C533R [6] = target: T1, CaMKIIβ L467W/C533R; test: [3H]HOCPCA binding, HEK293T whole-cell homogenate, CaMKIIβ L467W/C533R
Method: as §1, §2

CaMKIIα R469Q = target: T9, CaMKIIα R469Q (Rattus norvegicus, UniProt P11275, R469Q); test: [3H]HOCPCA binding, HEK293T whole-cell homogenate, CaMKIIα R469Q; settings: 40 nM radioligand
T9 construct: host or cells: HEK293T whole-cell homogenate
T9 sequence (P11275 whole entry R469Q): as the sequence (P11275 whole entry) above, with R469Q counted along it
Method: as §1, §2

[7] = test system: CaMKIIα (rat cortical homogenate); parameters: method as in earlier work; settings: comparative value, [3H]HOCPCA binding, ref 1 (Leurs et al., PNAS 2021); cited from earlier work
CaMKIIα R433Q = target: T10, CaMKIIα R433Q (Rattus norvegicus, UniProt P11275, R433Q); test: [3H]HOCPCA binding, HEK293T whole-cell homogenate, CaMKIIα R433Q; settings: 40 nM radioligand
T10 construct: host or cells: HEK293T whole-cell homogenate
T10 sequence (P11275 whole entry R433Q): as the sequence (P11275 whole entry) above, with R433Q counted along it
Method: as §1, §2

CaMKIIβ L467W = target: T11, CaMKIIβ L467W (Rattus norvegicus, UniProt P08413, L467W); test: [3H]HOCPCA binding, HEK293T whole-cell homogenate, CaMKIIβ L467W
T11 construct: host or cells: HEK293T whole-cell homogenate
T11 sequence (P08413 whole entry L467W): as the sequence (P08413 whole entry C533R) above, with L467W, R533C counted along it
Method: as §1, §2

[8] = cited from earlier work
CaMKIIα [9] = settings: CaMKIIα binding assays previously reported; cited from earlier work
[10] = target: T12, rat brain cortical homogenates (Rattus norvegicus, UniProt P11275); test: [3H]NCS-382 binding to rat brain cortical homogenates
T12 construct: from tissue; host or cells: rat brain cortical homogenate
T12 sequence (P11275 whole entry): as the sequence (P11275 whole entry) above

[11] = target: CaMKIIα-W403L hub protein; parameters: method as in PMID 39275999; settings: SPR, purified CaMKIIα-W403L hub; cited from earlier work
CaMKIIα-WT hub protein = target: CaMKIIα-WT hub protein; parameters: method as in PMID 39275999; settings: SPR, purified CaMKIIα-WT hub; cited from earlier work

T1 sequence (P08413 whole entry L467W/C533R): as the sequence (P08413 whole entry C533R) above, with L467W counted along it

In the case of `O=C(O)CCCO` [GHB, γ-hydroxybutyric acid], the IC50 (CaMKIIβ L467W/C533R [1]; IC50, displacement of [3H]O-5-HDC) is given as 710 µM, the IC50 (CaMKIIβ L467W/C533R [1]; pIC50 (value in parentheses after IC50), displacement of [3H]O-5-HDC) is given as 676 µM and the neuroprotection (ischemia) is given as “neuroprotective”. For the same molecule, the “effect on CaMKIIα activity (syntide-2 phosphorylation)” value (CaMKIIα [2]) was “not to affect CaMKIIα activity” and the “lower affinity in displacing [3H]O-5-HDC than [3H]HOCPCA” value ([3]; rat cortical homogenate) was 10 fold.
In the case of `O=C(O)C1=CC(O)CC1` (stereo not drawn) [HOCPCA, 3-hydroxycyclopent-1-enecarboxylic acid], the Ki [4] is given as 0.13 µM, the neuroprotection (ischemia) is given as “neuroprotective” and the “effect on CaMKIIα activity (syntide-2 phosphorylation)” value (CaMKIIα [2]) is given as “not to affect CaMKIIα activity”. For the same molecule, the Ki ([3]; Ki) was 1.27 µM, the Ki ([3]; pKi ± S.E.M., inhibition of [3H]O-5-HDC binding, rat cortical homogenate, n = 4) was 1.17 µM and the “lower affinity in displacing [3H]O-5-HDC than [3H]HOCPCA” value ([3]; rat cortical homogenate) was 10 fold.
In the case of `[3H]C1(O)C=C(C(=O)O)CC1` (stereo not drawn) [[^3H]HOCPCA], the “specific [3H]HOCPCA binding” value (CaMKIIβ C533R) is reported as “no specific binding”, the “specific [3H]HOCPCA binding” value [5] is reported as “completely binding-deficient” and the “specific [3H]HOCPCA binding” value (CaMKIIβ WT) is reported as “no detected specific [^3H]HOCPCA binding”. The “specific [3H]HOCPCA binding remaining” value (CaMKIIα R453Q) was 7–9%, the “specific [3H]HOCPCA binding remaining” value (CaMKIIα H395A) was 7–9% and the “specific [3H]HOCPCA binding” value (CaMKIIα W403L) was 70 % of WT. The “specific [3H]HOCPCA binding” value (CaMKIIγ C518R) was “no specific binding”, the “specific [3H]HOCPCA binding” value (CaMKIIβ L467W/C533R [6]) was “no detected specific [^3H]HOCPCA binding; also recorded: Neither of these led to any noticeable radioligand binding” and the “specific [3H]HOCPCA binding” value (CaMKIIα R469Q) was “completely abolished”. The Bmax [7] was 43 pmol/mg protein, the Kd [7] was 0.26 µM and the “pKd ± SEM” value [7] was 6.6 ± 0.06. The “specific [3H]HOCPCA binding” value (CaMKIIα R433Q) was “completely abolished” and the “specific [3H]HOCPCA binding” value (CaMKIIβ L467W) was “no detected specific [^3H]HOCPCA binding; also recorded: Neither of these led to any noticeable radioligand binding”.
For `O=C(O)Cc1cc(O)ccc1Nc1c(Cl)cccc1Cl` [5-HDC, 5-hydroxydiclofenac], the chemical stability [8] is listed as “chemically unstable”.
In the case of `O=C(O)Cc1cc(O)ccc1Oc1ccccc1Cl`, the Ki (CaMKIIα [9]) is listed as 0.027 µM.
For `O=C(O)Cc1cc(O)c(I)cc1Oc1ccccc1Cl` [compound 1], the affinity [10] was “mid-micromolar” and the “change in affinity in comparison to O-5-HDC” value [10] was 100 X.
For `O=C(O)Cc1cn2nc(-c3ccc(Cl)cc3)ccc2n1` [PIPA], the Kd [11] is given as 2.8 µM and the Kd (CaMKIIα-WT hub protein) is given as 1.4 µM.
In the case of `O=C(O)Cc1c(Oc2ccccc2Cl)cc(I)c(O)c1I` [compound 2], the affinity [10] is reported as “mid-micromolar” and the “change in affinity in comparison to O-5-HDC” value [10] is reported as 100 X.
